Laboratory results as given in patent publication US20260176320A1, “MODULATORS OF G-PROTEIN COUPLED RECEPTORS” (priority 2018, published 2026).
Like-named read-outs stand apart in the source and are kept apart here. Square brackets hold non-standard residues; d marks the D form. Peptide text beside a SMILES is read from it. * marks the point of attachment. X5 = O=C(CSCC(=O)*)NCCN1CCCC1=O; Aib = CC(C)(N)C(=O)O

How the values were obtained:
Type in all cases: cell-based
GLP-1R [1] = target: T1, GLP-1R (Homo sapiens, UniProt P43220); test: HitHunter cAMP assay (GLP-1R); details: cAMP; for Emax: read-out: (Emax) GLP-1R
Procedure, shortened: (§1)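 cAMP, luminescence read: agonist 22-pt 2× dilution in DMSO, duplicate, 30 min RT on 10,000 cells/well in 1×HBSS/10 mM HEPES/625 μM IBMX/0.2% BSA; anti-cAMP reagent 1 h RT dark, then O/N RT dark before read.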

GIP-R = target: T2, GIP-R (Homo sapiens, UniProt P48546); test: HitHunter cAMP assay (GIP-R); details: cAMP; for Emax at 1 µM: read-out: (Emax) GIP-R at 1 μM, Table 3; for Emax: read-out: (Emax) GIP-R
T2 sequence (P48546 22-466): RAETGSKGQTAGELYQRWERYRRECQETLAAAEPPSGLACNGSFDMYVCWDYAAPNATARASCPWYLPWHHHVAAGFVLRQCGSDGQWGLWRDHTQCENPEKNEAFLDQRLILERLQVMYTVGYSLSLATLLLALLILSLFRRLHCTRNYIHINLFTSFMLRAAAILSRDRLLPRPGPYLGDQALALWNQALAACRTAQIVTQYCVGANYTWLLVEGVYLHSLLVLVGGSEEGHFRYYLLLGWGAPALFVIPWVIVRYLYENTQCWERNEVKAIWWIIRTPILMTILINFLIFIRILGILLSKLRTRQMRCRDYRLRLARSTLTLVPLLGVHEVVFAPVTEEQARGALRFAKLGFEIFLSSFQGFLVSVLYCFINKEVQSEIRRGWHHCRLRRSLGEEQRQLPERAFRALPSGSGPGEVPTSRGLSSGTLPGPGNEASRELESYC
Procedure, shortened: as §1

GLP-1R [2] = target: T1, GLP-1R; test: PathHunter β-arrestin assay
Procedure, shortened: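 Luminescence read-out of β-arrestin recruitment (enzyme-fragment complementation detection, 3 h at room temperature in the dark) after 90 min agonist stimulation at 37 °C. Agonists tested as 22-point 2× serial dilutions in duplicate, in medium containing 0.2% BSA.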

T1 sequence (P43220 24-463): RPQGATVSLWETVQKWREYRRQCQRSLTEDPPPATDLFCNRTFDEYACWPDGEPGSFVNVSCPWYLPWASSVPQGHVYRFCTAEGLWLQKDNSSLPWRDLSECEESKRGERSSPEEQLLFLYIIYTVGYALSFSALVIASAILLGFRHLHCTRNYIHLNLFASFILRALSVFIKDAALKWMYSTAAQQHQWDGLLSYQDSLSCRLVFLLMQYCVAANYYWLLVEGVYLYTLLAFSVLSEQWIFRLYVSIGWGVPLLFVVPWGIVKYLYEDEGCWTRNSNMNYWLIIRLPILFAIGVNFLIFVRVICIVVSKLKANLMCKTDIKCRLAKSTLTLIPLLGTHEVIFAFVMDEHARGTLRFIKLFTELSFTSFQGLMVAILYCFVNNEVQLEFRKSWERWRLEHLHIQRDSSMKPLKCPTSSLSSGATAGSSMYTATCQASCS

SMILES | EC50 (GLP-1R [1]; EC50 GLP-1R/nM, Table 3) [nM] | EC50 (GLP-1R [1]; EC50 GLP-1R/nM, Table 3A) [nM] | Emax (GLP-1R [1]; Table 3) [%] | Emax (GLP-1R [1]; Table 3A) [%] | EC50 (GIP-R; EC50 GIP-R/nM, Table 3) [nM] | Emax at 1 µM (GIP-R) [%] | EC50 (GIP-R; read-out: EC50 GIP-R/nM, Table 3A) [nM] | EC50 (GLP-1R [2]) [nM] | EC50 (GIP-R; EC50 GIP-R/nM, Table 3A) [nM] | Emax (GIP-R; Table 3) [%] | Emax (GIP-R; Table 3A) [%] | EC50 (GLP-1R [1]; Table 3, read-out: EC50 GLP-1R/nM) [nM] | EC50 (GLP-1R [1]; Table 3A, read-out: EC50 GLP-1R/nM) [nM] | EC50 (GIP-R; Table 3, read-out: EC50 GIP-R/nM) [nM] | EC50 (GIP-R; Table 3A, read-out: EC50 GIP-R/nM) [nM] | EC50 (GLP-1R [2]; PathHunter β-arrestin assay, read-out: β-arrestin activity EC50) [nM]
CC[C@H](C)[C@H](NC(=O)[C@H](CO)NC(=O)[C@H](Cc1ccc(O)cc1)NC(=O)[C@H](CC(=O)O)NC(=O)[C@H](CO)NC(=O)[C@@H](NC(=O)[C@H](Cc1ccccc1)NC(=O)[C@@H](NC(=O)CNC(=O)[C@H](CCC(=O)O)NC(=O)CCCCCCN1C(=O)CSC1=O)[C@@H](C)O)[C@@H](C)O)C(=O)N[C@@H](Cc1ccc(O)cc1)C(=O)N[C@@H](CC(C)C)C(=O)N[C@@H](CC(=O)O)C(=O)N[C@@H](CCCCN)C(=O)N[C@@H](CCC(N)=O)C(=O)N[C@@H](C)C(=O)N[C@@H](C)C(=O)NC(C)(C)C(=O)N[C@@H](CCC(=O)O)C(=O)N[C@@H](Cc1ccccc1)C(=O)N[C@H](C(=O)N[C@@H](CC(N)=O)C(=O)N[C@@H](Cc1c[nH]c2ccccc12)C(=O)N[C@@H](CC(C)C)C(=O)N[C@@H](CC(C)C)C(=O)N[C@@H](C)C(=O)NCC(=O)NCC(=O)N1CCC[C@H]1C(=O)N[C@@H](CO)C(=O)N[C@@H](CO)C(=O)NCC(=O)N[C@@H](C)C(=O)N1CCC[C@H]1C(=O)N1CCC[C@H]1C(=O)N1CCC[C@H]1C(=O)N[C@@H](CO)C(=O)N[C@@H](CCCCN)C(N)=O)C(C)C [Compound 176] | 10 to 100 | 10 to 100 | 92 | 92 | > 1000 | 1.8 | > 1000 | > 1000 | – | – | – | – | – | – | – | –
CCCCCCCCCCCCCCCC(=O)N[C@@H](CCC(=O)NCCCC[C@H](NC(=O)[C@H](CO)NC(=O)[C@@H]1CCCN1C(=O)[C@@H]1CCCN1C(=O)[C@@H]1CCCN1C(=O)[C@H](C)NC(=O)CNC(=O)[C@H](CO)NC(=O)[C@H](CO)NC(=O)[C@@H]1CCCN1C(=O)CNC(=O)CNC(=O)[C@H](C)NC(=O)[C@H](CC(C)C)NC(=O)[C@H](CC(C)C)NC(=O)[C@H](Cc1c[nH]c2ccccc12)NC(=O)[C@H](CC(N)=O)NC(=O)[C@@H](NC(=O)[C@H](Cc1ccccc1)NC(=O)[C@H](CCC(=O)O)NC(=O)C(C)(C)NC(=O)[C@H](C)NC(=O)[C@H](C)NC(=O)[C@H](CCC(N)=O)NC(=O)[C@H](CCCCN)NC(=O)[C@H](CC(=O)O)NC(=O)[C@H](CC(C)C)NC(=O)[C@H](Cc1ccc(O)cc1)NC(=O)[C@@H](NC(=O)[C@H](CO)NC(=O)[C@H](Cc1ccc(O)cc1)NC(=O)[C@H](CC(=O)O)NC(=O)[C@H](CO)NC(=O)[C@@H](NC(=O)[C@H](Cc1ccccc1)NC(=O)[C@@H](NC(=O)CNC(=O)[C@H](CCC(=O)O)NC(=O)CSCC(=O)NCCN1C(=O)[C@H]2CC[C@H]2C1=O)[C@@H](C)O)[C@@H](C)O)[C@@H](C)CC)C(C)C)C(N)=O)C(=O)O [Compound 97] | 1 to 10 | 1 to 10 | 99 | 99 | 0.1 to 1 | – | – | > 1000 | 0.1 to 1 | 93 | 93 | – | – | – | – | –
CC[C@H](C)[C@H](NC(=O)[C@H](CO)NC(=O)[C@H](Cc1ccc(O)cc1)NC(=O)[C@H](CC(=O)O)NC(=O)[C@H](CO)NC(=O)[C@@H](NC(=O)[C@H](Cc1ccccc1)NC(=O)[C@@H](NC(=O)CNC(=O)[C@H](CCC(=O)O)NC(=O)CSCC(=O)NCCN1CCCC1=O)[C@@H](C)O)[C@@H](C)O)C(=O)N[C@@H](Cc1ccc(O)cc1)C(=O)N[C@@H](CC(C)C)C(=O)N[C@@H](CC(=O)O)C(=O)N[C@@H](CCCNC(=N)N)C(=O)N[C@@H](CCC(N)=O)C(=O)N[C@@H](C)C(=O)N[C@@H](C)C(=O)NC(C)(C)C(=O)N[C@@H](CCC(=O)O)C(=O)N[C@@H](Cc1ccccc1)C(=O)N[C@H](C(=O)N[C@@H](CC(N)=O)C(=O)N[C@@H](Cc1c[nH]c2ccccc12)C(=O)N[C@@H](CC(C)C)C(=O)N[C@@H](CC(C)C)C(=O)N[C@@H](C)C(=O)NCC(=O)NCC(=O)N1CCC[C@H]1C(=O)N[C@@H](CO)C(=O)N[C@@H](CO)C(=O)NCC(=O)N[C@@H](C)C(=O)N1CCC[C@H]1C(=O)N1CCC[C@H]1C(=O)N1CCC[C@H]1C(=O)N[C@@H](CO)C(N)=O)C(C)C [Compound 189] (X5-EGTFTSDYSIYLDRQAA[Aib]EFVNWLLAGGPSSGAPPPS-NH2) | – | – | 94 | 94 | – | 4.5 | – | – | – | – | – | 1 to 10 | 1 to 10 | > 1000 | > 1000 | > 1000
